Laboratory results as given in EPA's ToxRefDB 2.

Tests used:
rabbit = conditions: Prenatal developmental toxicity study, dutch, Oral, Gavage/Intubation, dose end: 18 GD, group: maternal
mouse [1] = conditions: Subchronic oral toxicity in rodents, b6c3f1, Feed, dose end: 90 day, group: systemic
mouse [2] = conditions: Chronic toxicity, b6c3f1, Oral, Feed, dose end: 1 year, group: systemic
dog [3] = conditions: Chronic toxicity; beagle; Oral; Capsule; dose end: 52 week; group: systemic; systemic / clinical chemistry / thyroxine (t4) / thyroxine (t4), total
rat [4] = conditions: Subchronic oral toxicity in rodents, fischer, Feed, dose end: 90 day, group: systemic
mouse [5] = conditions: Carcinogenicity, b6c3f1, Oral, Feed, dose end: 24 month, group: systemic
rat [6] = conditions: Combined chronic toxicity/carcinogenicity, fischer, Oral, Feed, dose end: 2 year, group: systemic
rat [7] = conditions: Multigenerational reproductive toxicity study, fischer, Oral, Feed, dose end: 2 generation
mouse [8] = conditions: Carcinogenicity, b6c3f1, Oral, Feed, dose end: 2 year, group: systemic
mouse [9] = conditions: Subchronic oral toxicity in rodents, b6c3f1, Feed, dose end: 90 day, group: systemic, systemic / clinical chemistry / glucose / glucose + systemic / in life observation / body weight / body weight gain + systemic / clinical …
rat [10] = conditions: Prenatal developmental toxicity study, sprague dawley, Oral, Gavage/Intubation, dose end: 17 GD
rat [11] = conditions: Combined chronic toxicity/carcinogenicity, other, Oral, Feed, dose end: 24 month, group: systemic
dog [12] = conditions: Subchronic oral toxicity in nonrodent, beagle, Feed, dose end: 90 day, group: systemic, systemic / hematology / erythrocyte (rbc) count differential / erythrocyte (rbc) + systemic / hematology / hematocrit (hct) / hematocrit (…
rat [13] = conditions: Subchronic oral toxicity in rodents, sprague dawley, Feed, dose end: 90 day, group: systemic, systemic / in life observation / body weight / body weight + systemic / in life observation / body weight / body weight gain + systemic / in…
mouse [14] = conditions: Carcinogenicity; cd1; Oral; Feed; dose end: 80 week; group: systemic; systemic / pathology microscopic / liver / adenoma + systemic / in life observation / body weight / body weight gain + systemic / in life …
dog [15] = conditions: Chronic toxicity; beagle; Oral; Feed; dose end: 52 week; group: systemic; systemic / organ weight / liver / relative to body weight + systemic / pathology microscopic / liver / vacuolization + systemic / pathology …
[16] = systemic / in life observation / food consumption / food consumption + reproductive / offspring survival early / litter size / litter size…
[17] = systemic / in life observation / food consumption / food consumption + systemic / in life observation / body weight / body weight gain
[18] = systemic / in life observation / body weight / body weight + systemic / organ weight / spleen / absolute
[19] = systemic / pathology microscopic / kidney / pyelonephritis + systemic / pathology microscopic / urinary bladder / inflammation + systemic / …
[20] = systemic / organ weight / kidney / absolute + systemic / organ weight / kidney / relative to body weight + systemic / pathology microscopic…
[21] = systemic / urinalysis / sediment microscopic / crystalluria + systemic / urinalysis / ph / ph
[22] = systemic / in life observation / body weight / body weight gain
[23] = systemic / in life observation / body weight / body weight gain + systemic / organ weight / uterus / absolute + systemic / organ weight / …
[24] = systemic / organ weight / uterus / absolute
[25] = systemic / hematology / erythrocyte (rbc) count differential / erythrocyte (rbc) + systemic / hematology / hematocrit (hct) / hematocrit (…
[26] = systemic / pathology microscopic / mammary gland / fibroadenoma
[27] = group: offspring, systemic / in life observation / body weight / offspring (pup) weight
[28] = group: parental, systemic / organ weight / kidney / absolute + systemic / organ weight / kidney / relative to body weight + systemic / pathology microscopic…
[29] = group: developmental, developmental / developmental malformation / bone / incomplete ossification + systemic / in life observation / body weight / fetal weight
[30] = group: developmental, developmental / developmental malformation / bone / incomplete ossification + systemic / in life observation / body weight / fetal weight + …
[31] = group: maternal, reproductive / reproductive performance / preimplantation loss / preimplantation loss + systemic / in life observation / body weight / body …
[32] = systemic / in life observation / body weight / body weight gain + systemic / in life observation / body weight / body weight + systemic / …

CCCN(CCC)c1c([N+](=O)[O-])cc(S(N)(=O)=O)cc1[N+](=O)[O-] [Oryzalin] showed an LEL (rabbit; [16]) of 55 mg/kg/day, an LOAEL (rabbit; [16]) of 55 mg/kg/day and an NEL (rabbit; [17]) of 25 mg/kg/day. The NOAEL (rabbit; [17]) was 25 mg/kg/day, the LOAEL (mouse [1]; systemic / in life observation / body weight / body weight) was 1140 mg/kg/day and the LEL (mouse [1]; [18]) was 1140 mg/kg/day. It also gave an NEL (mouse [1]; [18]) of 521 mg/kg/day, an NOAEL (mouse [1]; [18]) of 521 mg/kg/day and an LEL (mouse [2]; systemic / clinical chemistry / creatinine / creatinine + systemic / clinical chemistry / urea nitrogen / urea nitrogen) of 193 mg/kg/day. For the same compound, the NEL (mouse [2]; systemic / clinical chemistry / creatinine / creatinine + systemic / clinical chemistry / urea nitrogen / urea nitrogen + systemic / …) was 71 mg/kg/day, the LOAEL (mouse [2]; [19]) was over 521 mg/kg/day and the NOAEL (mouse [2]; [19]) was at least 521 mg/kg/day. The LEL (dog [3]) was 1.5 mg/kg/day, the LOAEL (dog [3]) was 15 mg/kg/day and the NEL (dog [3]) was under 1.5 mg/kg/day. For the same compound, the NOAEL (dog [3]) was 5 mg/kg/day, the LOAEL (rat [4]; [20]) was 45.9 mg/kg/day and the NOAEL (rat [4]; [20]) was 4.56 mg/kg/day. It also gave an LEL (rat [4]; [21]) of 4.56 mg/kg/day, an NEL (rat [4]; [21]) of under 4.56 mg/kg/day and an LOAEL (mouse [5]; [22]) of 521 mg/kg/day. It also gave an NEL (mouse [5]; [23]) of 71 mg/kg/day, an NOAEL (mouse [5]; [23]) of 193 mg/kg/day and an LEL (mouse [5]; [24]) of 193 mg/kg/day. The LOAEL (rat [6]; [25]) was 42.9 mg/kg/day, the NOAEL (rat [6]; [25]) was 13.8 mg/kg/day and the LEL (rat [6]; [26]) was 13.8 mg/kg/day. It also gave an NEL (rat [6]; [26]) of under 13.8 mg/kg/day, an LEL (rat [7]; [27]) of 179 mg/kg/day and an LOAEL (rat [7]; [27]) of 179 mg/kg/day. For the same compound, the NEL (rat [7]; [27]) was 58.7 mg/kg/day, the NOAEL (rat [7]; [27]) was 58.7 mg/kg/day and the LOAEL (rat [7]; [28]) was 19.4 mg/kg/day. The NOAEL (rat [7]; [28]) was under 19.4 mg/kg/day, the LOAEL (mouse [8]; [22]) was 287 mg/kg/day and the NOAEL (mouse [8]; [22]) was 104 mg/kg/day. It also gave an LEL (mouse [8]; [24]) of 112 mg/kg/day, an NEL (mouse [8]; systemic / organ weight / uterus / absolute + systemic / clinical chemistry / glucose / glucose + systemic / hematology / hematocrit (hct…) of 42.2 mg/kg/day and an LEL (mouse [9]) of 1430 mg/kg/day. For the same compound, the LOAEL (mouse [9]) was over 1430 mg/kg/day, the NEL (mouse [9]) was under 1430 mg/kg/day and the NOAEL (mouse [9]) was at least 1430 mg/kg/day. It also gave an LEL (rat [10]; [29]) of 225 mg/kg/day, an LOAEL (rat [10]; [29]) of 225 mg/kg/day and an NEL (rat [10]; [30]) of 50 mg/kg/day. For the same compound, the NOAEL (rat [10]; [30]) was 50 mg/kg/day, the LEL (rat [10]; [31]) was 225 mg/kg/day and the LOAEL (rat [10]; [31]) was 225 mg/kg/day. The NEL (rat [10]; [31]) was 50 mg/kg/day and the NOAEL (rat [10]; [31]) was 50 mg/kg/day.

COC(=O)c1ccccc1S(=O)(=O)NC(=O)Nc1nc(OC(F)F)cc(OC(F)F)n1 [Primisulfuron-methyl] gave an LEL (rat [11]; [22]) of 127 mg/kg/day, an LOAEL (rat [11]; [22]) of 127 mg/kg/day and an NEL (rat [11]; [32]) of 12.4 mg/kg/day. The NOAEL (rat [11]; [32]) was 12.4 mg/kg/day, the LEL (dog [12]) was 250 mg/kg/day and the LOAEL (dog [12]) was 250 mg/kg/day. It also gave an NEL (dog [12]) of 25 mg/kg/day, an NOAEL (dog [12]) of 25 mg/kg/day and an LEL (rat [13]) of 150 mg/kg/day. It also gave an LOAEL (rat [13]) of 150 mg/kg/day, an NEL (rat [13]) of 15 mg/kg/day and an NOAEL (rat [13]) of 15 mg/kg/day. The LEL (mouse [14]) was 408 mg/kg/day, the LOAEL (mouse [14]) was 408 mg/kg/day and the NEL (mouse [14]) was 40.2 mg/kg/day. It also gave an NOAEL (mouse [14]) of 40.2 mg/kg/day, an LEL (dog [15]) of 125 mg/kg/day and an LOAEL (dog [15]) of 125 mg/kg/day. For the same compound, the NEL (dog [15]) was 25 mg/kg/day and the NOAEL (dog [15]) was 25 mg/kg/day.
